Source: patent US7666635B2, “Process for the preparation of amides” (priority 1997, dated 2010)
Structures can show the parent of a compound that is named as a salt. Where two headings read alike, the source gives them in different places.

What was measured:
[1] = test system: purified nitrile hydratase from NA40; experiment: Substrate specificity of the purified nitrile hydratase; format: biochemical, Amycolatopsis NA40; settings: purified enzyme; 3-cyanopyridine = 100
Experimental: The substrate specificity was determined analogously to Example 2 (1).
1.7 Units of enzyme were added to the reaction mixture (2.0 ml). The reaction mixture contained the respective substrate in 45 mM phosphate buffer (pH 7.0).

[2] = test system: NA40 nitrile hydratase (resting NA40 cells); experiment: Substrate specificity of resting NA40 cells; format: cell-based, Amycolatopsis NA40; settings: resting NA40 cells, 20° C., 10 min; 3-cyanopyridine = 100; substrate concentration per Table 8
Experimental: (3) For determination of the activity of NA40 with respect to a number of substrates, cells having a dry weight of 0.0388 mg were incubated in the buffer described above. The reaction was started by addition of the appropriate substrate and incubated at 20° C. with shaking for 10 min. The reaction was stopped by addition of 0.2 ml of 2 N HCl and the reaction mixture was briefly centrifuged. The supernatant was analysed by means of HPLC or gas chromatography.

[3] = test system: Rhodococcus rhodochrous J1; experiment: Substrate specificity of the Rhodococcus strains; format: cell-based; settings: Rhodococcus rhodochrous J1; 3-cyanopyridine = 100
Experimental: (§1) Rhodococcus rhodochrous J1 was cultured for 72 h in the medium described in EP-A 0 307 926. The microorganisms Rhodoccus GF674, GF578, GF270 and GF376 were cultured in the following media at pH 7.0 for up to 96 h:
(§2) The substrate specificity is summarized as relative activity in Table 15.

Rhodococcus GF376 = experiment: Substrate specificity of the Rhodococcus strains; format: cell-based; settings: Rhodococcus GF376; 3-cyanopyridine = 100
Experimental: as §1
(§3) Rhodoccus GF674 in a medium comprising yeast extract 1.0 g/l, fructose 5.0 g/l, malt extract 10.0 g/l, acetamide 5.0 g/l, KH2PO4 2.0 g/l, MgSO47H2O 0.5 g/l and CoCl2.6H2O 10.0 mg. Rhodoccus GF578 in a medium containing yeast extract 1.0 g/l, fructose 15.0 g/l, malt extract 10.0 g/l, acetamide 25.0 g/l, KH2PO4 2.0 g/l, MgSO47H2O 0.5 g/l and CoCl2.6H2O 5.0 mg. […] Rhodoccus GF3 76 in a medium containing yeast extract 1.0 g/l, sodium citrate 10.0 g/l, malt extract 15.0 g/l, butyramide 7.5 g/l, KH2PO4 2.0 g/l, MgSO4.7H2O 0.5 g/l and CoCl2.6H2O 15.0 mg.
as §2

Rhodococcus GF270 = experiment: Substrate specificity of the Rhodococcus strains; format: cell-based; settings: Rhodococcus GF270; 3-cyanopyridine = 100
Experimental: as §1, §3, §2

Rhodococcus GF674 = experiment: Substrate specificity of the Rhodococcus strains; format: cell-based; settings: Rhodococcus GF674; 3-cyanopyridine = 100
Experimental: as §1, §3, §2

Rhodococcus GF578 = experiment: Substrate specificity of the Rhodococcus strains; format: cell-based; settings: Rhodococcus GF578; 3-cyanopyridine = 100
Experimental: as §1, §3, §2

[4] = test system: purified nitrile hydratase from NA40; format: biochemical, Amycolatopsis NA40
Experimental: The effect of various inhibitors was determined.

Amycolatopsis NA40 [5] = experiment: Effects of inducers and cofactors on growth and nitrile hydratase activity in the basal medium; format: cell-based
Experimental: (§4) (1) For determination of the nitrile hydratase activity, a reaction mixture (2 ml) containing 3-cyanopyridine (1.0 M, 1.0 ml), potassium phosphate buffer (pH 7.0, 0.1 M, 0.5 ml) and 0.5 ml of cell suspension were incubated at 20° C. for 30 min with stirring. The reaction was stopped by addition of 0.2 ml of 3 N HCl. After centrifuging briefly, the nicotinamide formed was determined by means of HPLC (Shimadzu SPD 6A system using a C18 column (Develosil ODS-HG-5. […]); eluent: 10 mM KH2PO4/H3PO4 (pH 2.8)/acetonitrile 9:1 (v/v); flow rate: 1 ml/min; the absorption was measured at 230 nm). The specific activity was expressed as µmol of nicotinamide formed/ml/min/OD610 nm.
(§5) The reaction rates of aliphatic nitriles in the enrichment medium (Table 1) with isolated bacteria is summarized in Table 5, the effects of inducers and cofactors in the basal medium (Table 2) is summarized in Table 4 and the activity comparison of Amycolatopsis to Rhodoccus in the basal medium (Table 2) is summarized in Table 6.

Amycolatopsis NA40 [6] = experiment: Effect of methanol on resting cells of NA40; format: cell-based; settings: for Relative activity: 10 min
Experimental: The reaction was carried out for 10 min in the presence of 0 20% (v/v) methanol according to Table 13.

Actinomadura spadix 45O1 = experiment: Conversion rates of aliphatic nitriles using the isolated bacteria (enrichment medium); format: cell-based
Experimental: a) Various soil samples were inoculated with various nitriles or amides as a C and N source in the enrichment medium according to Table 1 and incubated at 37° C. or 45° C. for 7 10 days. The cultures were then transferred to the same medium and again cultured at 37° C. for 7 10 days. The whole process was repeated 3 times. The cultures were then diluted and plated out in order to obtain individual colonies. The plates were incubated at 37° C. for 5 days. The different colonies were then tested for the desired activity.
[…] as a C and N source for Amycolatopsis NE31 (DSMZ 11616) Actinomadura spadix E3733 and Actinomadura spadix E3736, azelanitrile served as a C and N source for Amycolatopsis NA40 (DSMZ 11617) and Actinomadura spadix 45A32, n-octanenitrile served as a C and N source for Actinomadura spadix 4501 and cyanoacetic acid served as a C and N source for Actinomadura spadix C15.
as §4, §5

[7] = substance added as inducer to basal medium
[8] = substance added as inducer to basal medium, nicotinamide formed from 3-cyanopyridine, 20° C.
[9] = substance added as cofactor to basal medium
[10] = inhibitor 1 mM, without inhibitor = 100

Structure (SMILES)	Relative activity, Enzyme reaction [1]	Relative activity [2]	relative activity (substrate specificity) [3]	relative activity (substrate specificity) (Rhodococcus GF376)	relative activity (substrate specificity) (Rhodococcus GF270)	relative activity (substrate specificity) (Rhodococcus GF674)	relative activity (substrate specificity) (Rhodococcus GF578)	also measured
N#Cc1cccnc1Cl [2-Chloro-3-cyanopyridine]	90%	126%						
N#Cc1ccccn1 [2-Cyanopyridine]	221%	128%	45%	54.3%	15.7%	308%	200%	
O=C(O)c1cc[c]([Hg][Cl])cc1 [4-Chloromercurobenzoic acid]								Relative activity ([4]; inhibitor 0.1 mM, without inhibitor = 100): 69%
N#Cc1ccncc1 [4-Cyanopyridine]	179%	168%	70%	79.8%	55.6%	231%	167%	
Oc1cccc2cccnc12 [8-Hydroxyquinoline]								Relative activity [4]: 110%
CC#N [Acetonitrile]			608%	806%	659%	1.49%	347%	
N#Cc1ccccc1 [Benzonitrile]	64%	51%	27%	57.2%	13.4%	138%	85.1%	
CCCC(N)=O [Butyramide]								Growth (OD610 nm) (Amycolatopsis NA40 [5]; [7]): 2.19 OD610 nm; Specific activity (Amycolatopsis NA40 [5]; [7]): 0.88 μmol/ml/min/OD; Total activity (Amycolatopsis NA40 [5]; [8]): 0.19 µmol/mL/min
O.O.O.O.O.O.[Cl-].[Cl-].[Co+2] [CoCl2•6H2O]								Growth (OD610 nm) (Amycolatopsis NA40 [5]; [9]): 8.41 OD610 nm; Specific activity (Amycolatopsis NA40 [5]; [9]): 5.68 μmol/ml/min/OD; Total activity (Amycolatopsis NA40 [5]; [9]): 47.8 µmol/mL/min
C/C=C/C(N)=O [Crotonamide]								Growth (OD610 nm) (Amycolatopsis NA40 [5]; [7]): 3.41 OD610 nm; Specific activity (Amycolatopsis NA40 [5]; [7]): 6.72 μmol/ml/min/OD; Total activity (Amycolatopsis NA40 [5]; [8]): 22.9 µmol/mL/min
CC=CC#N [Crotononitrile]	67%	52%	78.2%	110%	37.1%	98.0%	124%	
CCN(CC)C(=S)S [Diethyl dithiocarbamate]								Relative activity [4, 10]: 89%
O=C(O)CN(CCN(CC(=O)O)CC(=O)O)CC(=O)O [EDTA, ethylenediaminetetra-acetic acid]								Relative activity [4]: 115%
O.O.O.O.O.O.O.O=S(=O)([O-])[O-].[Fe+2] [FeSO4•7H2O]								Growth (OD610 nm) (Amycolatopsis NA40 [5]; [9]): 8.32 OD610 nm; Specific activity (Amycolatopsis NA40 [5]; [9]): 0.40 μmol/ml/min/OD; Total activity (Amycolatopsis NA40 [5]; [9]): 3.36 µmol/mL/min
NO [Hydroxylamine]								Relative activity [4, 10]: 37%
O=C(O)CI [Iodoacetic acid]								Relative activity [4]: 39%
C=C(C)C(N)=O [Methacrylamide]								Growth (OD610 nm) (Amycolatopsis NA40 [5]; [7]): 3.33 OD610 nm; Specific activity (Amycolatopsis NA40 [5]; [7]): 0.74 μmol/ml/min/OD; Total activity (Amycolatopsis NA40 [5]; [8]): 2.46 µmol/mL/min

Structure (SMILES)	Relative activity, Enzyme reaction [1]	Relative activity [2]	relative activity (substrate specificity) [3]	relative activity (substrate specificity) (Rhodococcus GF376)	relative activity (substrate specificity) (Rhodococcus GF270)	relative activity (substrate specificity) (Rhodococcus GF674)	relative activity (substrate specificity) (Rhodococcus GF578)	also measured
C=C(C)C#N [Methacrylonitrile]	125%	130%	86.9%	0%	0%	176%	122%	
CCN1C(=O)C=CC1=O [N-ethylmaleimide]								Relative activity [4, 10]: 97%
NNc1ccccc1 [Phenylhydrazine]								Relative activity [4, 10]: 8%
CCC(N)=O [Propionamide]								Growth (OD610 nm) (Amycolatopsis NA40 [5]; [7]): 1.91 OD610 nm; Specific activity (Amycolatopsis NA40 [5]; [7]): 0.48 μmol/ml/min/OD; Total activity (Amycolatopsis NA40 [5]; [8]): 0.92 µmol/mL/min
CCC#N [Propionitrile]	222%	105%	434%	245%	37.3%	274%	132%	
NNC(N)=O [Semicarbazide]								Relative activity [4, 10]: 82%
O=S(=O)(O)c1cc(O)c(O)c(S(=O)(=O)O)c1 [Tiron, disodium salt of 4,5-dihydroxy-1,3-benzene-disulphonic acid]								Relative activity [4, 10]: 110%
NC(N)=O [Urea]								Growth (OD610 nm) (Amycolatopsis NA40 [5]; [7]): 1.72 OD610 nm; Specific activity (Amycolatopsis NA40 [5]; [7]): 1.73 μmol/ml/min/OD; Total activity (Amycolatopsis NA40 [5]; [8]): 2.97 µmol/mL/min
N#Cc1cccc(Cl)c1 [m-Chlorobenzonitrile]	90%	75%	43%	8.63%	8.41%	27.8%	28.9%	
CO [methanol]								activity of resting NA40 cells (Amycolatopsis NA40 [6]; addition of 5 15% methanol): increased; Relative activity (Amycolatopsis NA40 [6]; methanol 5 % (v/v), 0 % = 100): 123%; Relative activity (Amycolatopsis NA40 [6]; methanol 10 % (v/v)): 128%; Relative activity (Amycolatopsis NA40 [6]; methanol 15 % (v/v)): 130%; Relative activity (Amycolatopsis NA40 [6]; methanol 20 % (v/v)): 105%
CCCC#N [n-Butyronitrile]	101%	194%	352%	195%	181%	491%	368%	
CCCCCCCC#N [n-octanenitrile]								Specific activity (Actinomadura spadix 45O1; strain 45O1): 4.45 μmol/ml/min/OD; Total activity (Actinomadura spadix 45O1; strain 45O1): 32.2 µmol/mL/min; Growth (OD610 nm) (Actinomadura spadix 45O1; strain 45O1, nitrile as substrate in enrichment medium): 7.24 OD610 nm
N#Cc1ccccc1Cl [o-Chlorobenzonitrile]	127%	96%	2.8%	0%	0%	64.8%	49.0%	
c1cnc2c(c1)ccc1cccnc12 [o-Phenanthroline]								Relative activity [4, 10]: 89%
c1ccc(-c2ccccn2)nc1 [α,α′-Dipyridyl]								Relative activity [4, 10]: 100%
O=C1CCCCCN1 [ε-Caprolactam]								Growth (OD610 nm) (Amycolatopsis NA40 [5]; [7]): 0.66 OD610 nm; Specific activity (Amycolatopsis NA40 [5]; [7]): 14.5 μmol/ml/min/OD; Total activity (Amycolatopsis NA40 [5]; [8]): 9.52 µmol/mL/min
